{
  "source": "patent US10280183B2",
  "about": "“Therapeutic agent for treating tumors” (THE RESEARCH FOUNDATION FOR THE STATE UNIVERSITY OF NEW YORK, priority 2014, dated 2019)",
  "key": {"[1]": {"test_system": "L1210FR murine lymphocytic leukemia cell line (BR+)", "experiment": "In vitro cytotoxicity, standard MTT assay, L1210FR cells", "format": "cell-based", "details": "Mus musculus", "procedure": "(§1) Cell Culture. All cell lines were obtained from ATCC unless otherwise noted. Cells were cultured in RPMI-1640 cell culture medium (Gibco) or DMEM (Gibco), both supplemented with 5% (v/v) heat-inactivated fetal bovine serum (FBS), 5% (v/v) NuSerum, and 1% (v/v) penicillin and streptomycin (PenStrep) at 37° C. in a humidified atmosphere with 5% CO2. MX-1 and ID8 (obtained from University of Kansas Medical Center) cells were cultured as monolayers on 100 mm tissue culture dishes in supplemented RPMI-1640. L1210 and L1210FR (a gift from Dr. Gregory Russell-Jones, Access Pharmaceuticals Pty Ltd., Australia) were grown as a suspension in supplemented RPMI-1640, and WI-38 as a monolayer in supplemented DMEM. Cells were harvested, collected by centrifugation at 850 rpm for 5 min, and resuspended in fresh culture medium. Cell cultures were routinely divided by treatment with trypsin (TrypLE, Gibco) as needed every 2-4 days and collected by centrifugation at 850 rpm for 5 min, and resuspended in fresh cell culture medium, containing varying cell densities for subsequent biological experiments and analysis.\n(§2) In Vitro Cytotoxicity Assays. […] Cells were harvested, collected, and resuspended in 100 μL cell culture medium at concentrations ranging from 0.5-1.5×10^4 cells per well in a 96-well plate. For adhesive cell types, cells were allowed to descend to the bottom of the wells overnight, and fresh medium was added to each well upon removal of the old medium.\n(§3) For the MTT assay (Table 1 and the Assay 1 in Table 2) of paclitaxel, taxoid 3 and conjugates 1 and 15, cells were resuspended in 200 μL medium with 8,000 to 10,000 cells per well of a 96-well plate and incubated at 37° C. for 24 h before drug treatment. In DMSO stock solutions, each drug or conjugate was diluted to a series of concentrations in cell culture medium to prepare test solutions. After removing the old medium, these test solutions were added to the wells in the 96-well plate to give the final concentrations ranging from 0.5 to 5,000 nM (100 μL), and the cells were subsequently cultured at 37° C. for 48 h (Table 1) or 72 h (Table 2, Assay 1). For the leukemia cell lines, L1210 and L1210FR, cells were harvested, collected, and resuspended in the test solutions ranging from 0.5 to 5,000 nM (100 μL) at 0.5 to 0.8 ×10^4 cells per well in a 96-well plate and subsequently incubated at 37° C. for 48 h (Table 1) or 72 h (Table 2, Assay 1).\n(§4) In the Assay 2 (Table 2), cells were incubated with 1 or 15 at 37° C. for 24 h, and the drug medium was removed. Then, treated cells were thoroughly washed with PBS, and GSH-OEt (6 equiv. to conjugate) in cell culture medium (200 μL) was added to the wells. These cells were incubated at 37° C. for an additional 48 h, i.e., the total incubation time was 72 h.\n(§5) In the Assay 3 (Table 2), cells were incubated with 1 or 15 at 37° C. for 24 h, and GSH-OEt (6 equivalents) in cell culture medium (100 μL) was directly added to the wells. These cells were incubated at 37° C. for an additional 48 h, i.e. the total incubation time was also 72 h.\n(§6) For all experiments, after removing the test medium, fresh solution of MTT in PBS (40 μL of 0.5 mg MTT/mL) was added to the wells, and the cells were incubated at 37° C. for 3 h. The MTT solution was then removed, and the resulting insoluble violet formazan crystals were dissolved in 0.1 N HCl in isopropanol with 10% Triton X-100 (40 μL) to give a violet solution. The spectrophotometric absorbance measurement of each well in the 96-well plate was run at 570 nm using a Labsystems Multiskan Ascent microplate reader. The IC50 values and their standard errors were calculated from the viability-concentration curve using Four Parameter Logistic Model of Sigmaplot. The concentration of DMSO per well was ≤1% in all cases. Each experiment was run in triplicate."}, "[2]": {"test_system": "ID8 murine ovarian carcinoma cell line (BR+)", "experiment": "In vitro cytotoxicity, standard MTT assay, ID8 cells", "format": "cell-based", "details": "Mus musculus, Ovarian carcinoma cell, read-out: Cytotoxicity IC50, ID8", "procedure": "as §1, §2\nas §3, with “After removing the old medium, these test solutions were added to the wells in the 96-well plate to give the final concentrations ranging from 0.5 to 5,000 nM (100 μL), and the cells were subsequently cultured at 37° C. for 48 h (Table 1) or 72 h (Table 2, Assay 1).” left out\nas §6"}, "[3]": {"experiment": "In vitro cytotoxicity, standard MTT assay, WI38 cells", "format": "cell-based, human", "details": "human; for IC50 at 48 h: incubation at 37° C. for 48 h", "procedure": "as §1, §2, §3, §4, §5, §6"}, "[4]": {"test_system": "L1210 murine lymphocytic leukemia cell line (BR−)", "experiment": "In vitro cytotoxicity, standard MTT assay, L1210 cells", "format": "cell-based", "details": "Mus musculus, read-out: Cytotoxicity IC50, L1210", "procedure": "as §1, §2, §3, §6"}, "[5]": {"test_system": "BR+ cancer cell lines (L1210FR, MX-1, ID8)", "experiment": "MTT cytotoxicity summarised over BR+ cancer cell lines", "format": "cell-based", "procedure": "as §2, §3, §4, §5, §6\nThus, the Assay 1 results provide the potency of conjugates in the same manner as that for the first assay summarized in Table 1, but for longer incubation time (48 h vs. 72 h). […] Accordingly, this assay may mimic the corresponding in vivo assay conditions, wherein non-internalized conjugates would be removed from the tumor, redistributed and eventually excreted. […] Thus, in principle, the results (IC50 values) in this assay should be very close to those for the control using taxoid 3 (entry 2)."}, "[6]": {"test_system": "MX-1 human breast carcinoma cell line (BR+)", "experiment": "In vitro cytotoxicity, standard MTT assay, MX-1 cells", "format": "cell-based", "details": "Homo sapiens, Breast carcinoma cell", "procedure": "as §1, §2, §3, §4, §5, §6"}, "[7]": {"test_system": "WI38 human lung fibroblast cell line (BR−)", "experiment": "In vitro cytotoxicity, standard MTT assay, WI38 cells", "format": "cell-based", "procedure": "as §1, §2, §3, §4, §5, §6"}, "[8]": {"details": "48 h, read-out: Cytotoxicity IC50, L1210FR"}, "[9]": {"details": "72 h, read-out: Cytotoxicity IC50, L1210FR, Assay 1"}, "[10]": {"details": "72 h incubation, no GSH-OEt, read-out: Cytotoxicity IC50, WI38, Assay 1"}, "[11]": {"details": "48 h, read-out: Cytotoxicity IC50, MX-1"}, "[12]": {"details": "72 h, read-out: Cytotoxicity IC50, MX-1, Assay 1"}},
  "note": "Like-named read-outs stand apart in the source and are kept apart here.",
  "data": [
    {"smiles": "CC(=O)O[C@@]12CO[C@@H]1C[C@H](O)[C@@]1(C)C(=O)[C@H](OC(=O)C3CC3)C3=C(C)[C@@H](OC(=O)[C@H](OC(=O)Cc4ccccc4SSC(C)CCC(=O)NNC(=O)CCCC[C@@H]4SC[C@@H]5NC(=O)N[C@@H]54)[C@H](C=C(C)C)NC(=O)OC(C)(C)C)C[C@@](O)([C@@H](OC(=O)c4ccccc4)[C@H]21)C3(C)C", "note": "(stereo partly shown) [Conjugate 15, Biotin-(SS-Linker)-SB-T-1214]", "values": [
      {"measurement": "IC50", "setting": "[1]; [8]", "result": "13.4 ± 6.8", "unit": "nM"},
      {"measurement": "IC50", "setting": "[1]; [9]", "result": "12.3 ± 2.8", "unit": "nM"},
      {"measurement": "IC50", "setting": "[1]; read-out: Cytotoxicity IC50, L1210FR, Assay 2", "result": "5.15 ± 2.85", "unit": "nM"},
      {"measurement": "IC50", "setting": "[1]; read-out: Cytotoxicity IC50, L1210FR, Assay 3", "result": "2.92 ± 2.34", "unit": "nM"},
      {"measurement": "IC50", "setting": "[2]; 48 h", "result": "4.32 ± 1.58", "unit": "nM"},
      {"measurement": "IC50 at 72 h", "setting": "[3]; 24 h incubation, PBS wash, then GSH-OEt (6 equiv.) and additional 48 h, read-out: Cytotoxicity IC50, WI38, Assay 2", "result": "590 ± 164", "unit": "nM"},
      {"measurement": "IC50 at 72 h", "setting": "[3]; 24 h incubation, then GSH-OEt (6 equiv.) added without washing, additional 48 h, read-out: Cytotoxicity IC50, WI38, Assay 3", "result": "11 ± 3.1", "unit": "nM"},
      {"measurement": "IC50 at 72 h", "setting": "[3]; [10]", "result": "645 ± 97", "unit": "nM"},
      {"measurement": "IC50 at 48 h", "setting": "[3]", "result": "670 ± 89", "unit": "nM"},
      {"measurement": "IC50", "setting": "[4]; L1210, 48 h", "result": "481 ± 34", "unit": "nM"},
      {"measurement": "IC50", "setting": "[5]; 24 h, PBS wash, GSH-OEt, additional 48 h, range over conjugates 1 and 15, read-out: IC50 range against BR+ cancer cells (MX-1, L1210FR), Assay 2", "result": "3.85 to 6.6", "unit": "nM"},
      {"measurement": "Cancer cell selectivity (BR-specificity), BR+ cancer cells vs BR− WI38 cells", "setting": "[5]; Assay 2", "result": "two-orders of magnitude difference"},
      {"measurement": "IC50", "setting": "[5]; GSH-OEt added after 24 h without PBS washing, additional 48 h, range over conjugates 1 and 15, read-out: IC50 range against MX-1 and L1210FR, third assay (Assay 3)", "result": "2.4 to 2.92", "unit": "nM"},
      {"measurement": "IC50", "setting": "[6]; [11]", "result": "15.4 ± 4.2", "unit": "nM"},
      {"measurement": "IC50", "setting": "[6]; [12]", "result": "4.66 ± 0.87", "unit": "nM"},
      {"measurement": "IC50", "setting": "[6]; read-out: Cytotoxicity IC50, MX-1, Assay 2", "result": "3.85 ± 0.14", "unit": "nM"},
      {"measurement": "IC50", "setting": "[6]; read-out: Cytotoxicity IC50, MX-1, Assay 3", "result": "2.4 ± 0.18", "unit": "nM"}
    ]},
    {"smiles": "CC(=O)O[C@@]12CO[C@@H]1C[C@H](O)[C@@]1(C)C(=O)[C@H](OC(=O)C3CC3)C3=C(C)[C@@H](OC(=O)[C@H](O)[C@H](C=C(C)C)NC(=O)OC(C)(C)C)C[C@@](O)([C@@H](OC(=O)c4ccccc4)[C@H]21)C3(C)C", "note": "[Taxoid 3, SB-T-1214, reference compound]", "values": [
      {"measurement": "IC50", "setting": "[1]; [8]", "result": "4.18 ± 1.8", "unit": "nM"},
      {"measurement": "IC50", "setting": "[1]; [9]", "result": "2.32 ± 1.41", "unit": "nM"},
      {"measurement": "IC50", "setting": "[2]; 48 h", "result": "0.17 ± 0.14", "unit": "nM"},
      {"measurement": "IC50 at 72 h", "setting": "[3]; [10]", "result": "4.89 ± 2.24", "unit": "nM"},
      {"measurement": "IC50 at 48 h", "setting": "[3]", "result": "5.23 ± 0.27", "unit": "nM"},
      {"measurement": "IC50", "setting": "[4]; L1210, 48 h", "result": "7.05 ± 1.38", "unit": "nM"},
      {"measurement": "IC50", "setting": "[5]; 72 h incubation, read-out: IC50 range of free taxoid against MX-1 and L1210FR", "result": "2.32 to 2.66", "unit": "nM"},
      {"measurement": "IC50", "setting": "[6]; [11]", "result": "4.13 ± 2.59", "unit": "nM"},
      {"measurement": "IC50", "setting": "[6]; [12]", "result": "2.66 ± 0.16", "unit": "nM"}
    ]},
    {"smiles": "CC(=O)O[C@H]1C(=O)[C@@]2(C)[C@H]([C@H](OC(=O)c3ccccc3)[C@]3(O)C[C@H](OC(=O)[C@H](O)[C@@H](NC(=O)c4ccccc4)c4ccccc4)C(C)=C1C3(C)C)[C@]1(OC(C)=O)CO[C@@H]1C[C@@H]2O", "note": "[paclitaxel, reference compound]", "values": [
      {"measurement": "IC50", "setting": "[1]; 72 h incubation, no GSH-OEt, read-out: Cytotoxicity IC50, L1210FR, Assay 1", "result": "35.6 ± 8.2", "unit": "nM"},
      {"measurement": "IC50", "setting": "[1]; incubation at 37° C. for 48 h, read-out: Cytotoxicity IC50, L1210FR", "result": "38.7 ± 17.7", "unit": "nM"},
      {"measurement": "IC50", "setting": "[2]; incubation at 37° C. for 48 h", "result": "14.4 ± 1.81", "unit": "nM"},
      {"measurement": "IC50", "setting": "[7]; [10]", "result": "55.7 ± 9.54", "unit": "nM"},
      {"measurement": "IC50", "setting": "[7]; incubation at 37° C. for 48 h, read-out: Cytotoxicity IC50, WI38", "result": "61.4 ± 12.7", "unit": "nM"},
      {"measurement": "IC50", "setting": "[4]; L1210, incubation at 37° C. for 48 h", "result": "77.1 ± 12.8", "unit": "nM"},
      {"measurement": "IC50", "setting": "[6]; 72 h incubation, no GSH-OEt, read-out: Cytotoxicity IC50, MX-1, Assay 1", "result": "4.07 ± 0.8", "unit": "nM"},
      {"measurement": "IC50", "setting": "[6]; incubation at 37° C. for 48 h, read-out: Cytotoxicity IC50, MX-1", "result": "7.23 ± 0.68", "unit": "nM"}
    ]}
  ]
}
